The target of data set [1] is T1, Free fatty acid receptor 4 (Homo sapiens, UniProt Q5NUL3).
T1 sequence (Q5NUL3 whole entry): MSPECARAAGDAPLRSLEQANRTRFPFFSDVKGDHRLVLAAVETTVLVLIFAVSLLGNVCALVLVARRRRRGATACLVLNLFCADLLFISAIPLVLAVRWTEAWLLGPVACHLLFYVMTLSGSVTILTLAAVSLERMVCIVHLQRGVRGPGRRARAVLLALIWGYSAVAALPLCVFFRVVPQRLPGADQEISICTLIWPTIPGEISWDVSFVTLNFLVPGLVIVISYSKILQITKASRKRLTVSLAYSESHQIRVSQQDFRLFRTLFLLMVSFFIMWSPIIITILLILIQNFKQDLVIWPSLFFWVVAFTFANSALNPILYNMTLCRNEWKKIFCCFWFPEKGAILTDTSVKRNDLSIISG
The data set can be described thus: Agonist activity at FFA4 (unknown origin) expressed in CHO-K1 cells by BRET assay. The class given is cell-based.

Data set [2] concerns the target T2, Tyrosine-protein phosphatase non-receptor type 1 (Homo sapiens, UniProt P18031).
T2 sequence (P18031 whole entry): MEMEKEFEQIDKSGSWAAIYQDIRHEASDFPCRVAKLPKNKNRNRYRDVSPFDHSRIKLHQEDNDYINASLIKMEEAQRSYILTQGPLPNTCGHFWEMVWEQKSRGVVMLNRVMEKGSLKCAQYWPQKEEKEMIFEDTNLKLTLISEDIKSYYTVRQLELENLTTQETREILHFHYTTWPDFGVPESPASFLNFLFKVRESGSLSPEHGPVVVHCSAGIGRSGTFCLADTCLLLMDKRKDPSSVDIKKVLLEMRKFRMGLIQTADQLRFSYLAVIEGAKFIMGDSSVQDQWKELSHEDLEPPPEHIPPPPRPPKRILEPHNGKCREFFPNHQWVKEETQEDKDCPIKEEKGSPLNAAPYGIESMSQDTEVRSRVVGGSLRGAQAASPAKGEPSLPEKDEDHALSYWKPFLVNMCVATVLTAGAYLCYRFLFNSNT
The data set can be described thus: Inhibition of human GST-tagged PTP1B expressed in Escherichia coli using pNPP as substrate by spectroscopic analysis.

Data set [3] deals with T3, Free fatty acid receptor 1 (Homo sapiens, UniProt O14842). The data set can be described thus: Agonist activity at human GPR40 expressed in HEK293 cells incubated for 1 hrs by calcium flux assay. The class given is cell-based.
T3 sequence (O14842 whole entry): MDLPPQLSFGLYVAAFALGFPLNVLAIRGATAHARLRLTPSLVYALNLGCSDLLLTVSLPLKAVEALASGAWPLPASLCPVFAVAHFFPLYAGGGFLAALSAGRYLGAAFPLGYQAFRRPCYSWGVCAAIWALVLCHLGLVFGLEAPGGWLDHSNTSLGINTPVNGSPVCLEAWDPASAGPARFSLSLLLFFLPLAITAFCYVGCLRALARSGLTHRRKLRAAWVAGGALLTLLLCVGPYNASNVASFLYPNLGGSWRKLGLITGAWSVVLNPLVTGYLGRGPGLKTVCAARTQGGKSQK
In data set [4] the target is Free fatty acid receptor 1 (Rattus norvegicus) (UniProt Q8K3T4). The data set can be described thus: In vivo agonist activity at FFAR1 in streptozotocin (STZ)-induced Wistar rat assessed as reduction in blood glucose AUC at 1 mg/kg,iv and measured upto 120 mins by OGTT analysis. In kind it is functional, organism-based. Also on record: scale not given: the % may be the effect or the level left.
Free fatty acid receptor 1 (Rattus norvegicus), sequence (Q8K3T4 whole entry): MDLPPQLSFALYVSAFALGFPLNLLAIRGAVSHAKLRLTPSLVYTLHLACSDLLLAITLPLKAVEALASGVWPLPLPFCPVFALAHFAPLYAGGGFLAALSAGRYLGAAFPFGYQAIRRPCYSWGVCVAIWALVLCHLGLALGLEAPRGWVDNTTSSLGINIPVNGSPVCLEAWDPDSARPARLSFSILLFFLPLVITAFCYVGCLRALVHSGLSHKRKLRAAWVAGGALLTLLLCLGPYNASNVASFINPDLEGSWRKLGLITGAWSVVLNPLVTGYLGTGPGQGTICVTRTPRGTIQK

For data set [5], the target named is T3, Free fatty acid receptor 1. The data set can be described thus: Agonist activity at FFAR1 (unknown origin) incubated for 16 hrs by Promoter-luciferase assay.
Data set [6] in a line: Clearance in Wistar rat at 1 mg/kg,iv. The class given is ADME, organism-based. Conditions: in vivo.
Data set [7] has as its target Free fatty acid receptor 1 (Rattus norvegicus) (UniProt Q8K3T4). The data set can be described thus: In vivo agonist activity at FFAR1 in iv dosed streptozotocin (STZ)-induced Wistar rat model assessed as reduction in blood glucose AUC and measured upto 120 mins by OGTT analysis. In kind it is functional, organism-based.
A short description of data set [8]: Oral bioavailability in Wistar rat at 3 mg/kg. Conditions: in vivo. The class given is ADME, organism-based.
A further data set deals with Glucagon receptor (Homo sapiens, UniProt P47871). The data set can be described thus: Inhibition of human GCGR receptor.
Glucagon receptor, sequence (P47871 whole entry): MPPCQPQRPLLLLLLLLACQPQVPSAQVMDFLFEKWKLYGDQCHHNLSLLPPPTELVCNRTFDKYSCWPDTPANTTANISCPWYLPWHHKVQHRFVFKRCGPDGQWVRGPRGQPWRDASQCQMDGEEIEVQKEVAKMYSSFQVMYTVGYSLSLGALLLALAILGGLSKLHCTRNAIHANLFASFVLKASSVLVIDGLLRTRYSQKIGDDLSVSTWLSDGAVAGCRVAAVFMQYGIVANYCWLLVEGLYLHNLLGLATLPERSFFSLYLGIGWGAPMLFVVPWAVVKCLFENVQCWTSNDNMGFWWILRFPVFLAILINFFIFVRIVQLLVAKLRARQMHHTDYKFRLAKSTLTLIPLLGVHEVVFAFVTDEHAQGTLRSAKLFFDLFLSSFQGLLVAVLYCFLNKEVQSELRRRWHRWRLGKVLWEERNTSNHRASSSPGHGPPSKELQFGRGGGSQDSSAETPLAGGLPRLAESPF

As for `O=C(O)CCCc1ccc(OCC2=C(c3ccc(C4CC4)cc3)CCCC2)cc1`, the midpoint of the response in [1], the EC50, lay at 50 nM.

`COc1cc(C(=O)c2c(CBr)cc(OC)c(OC)c2Br)c(Br)c(Br)c1OC` showed a half-maximal inhibitory concentration (IC50) in data set [2] of 2070 nM.

With `COc1ccc(F)c(-c2ncc(COc3ccc([C@@H](CC(=O)O)C4CC4)cc3)nc2OCCC(F)(F)F)c1`, in data set [3], the EC50 came to 6 nM.

Regarding `CC#CC(CC(=O)O)c1ccc(OCc2cccc(CN3CCc4oc(C5CC5)nc4C3)c2)cc1` (centres undefined), the Activity in [4] came out at 46%. Also, the midpoint of the response in data set [5], the EC50, lay at 50 nM. Further, the clearance in data set [6] was 0.27 mL/min/kg. For the same molecule, in data set [7], the 50% effective dose (ED50) amounted to 0.09 mg/kg. In addition, the bioavailability in data set [8] came to 45%.

The molecule `Cc1cc(O[C@@H](CCC(F)(F)F)c2ccc(C(=O)NCCC(=O)O)cc2)cc(C)c1-c1ccc(C(C)(C)C)cc1` [ADOMEGLIVANT] registered an inhibitory constant (Ki) on Glucagon receptor of 6.6 nM.

The record behind these values is ChEMBL document CHEMBL5244211, “Current anti-diabetic agents and their molecular targets: A review” (Eur J Med Chem, 2018).
